# Experimental data: US8377870B2, “Antimicrobial aqueous solution and its preparation method” (Dentrochemical Co., Ltd., priority 2008, dated 2013)
# Tests used:
# [1] = acute toxicity; cited from earlier work
# Pseudomonas = assay: successive 2-fold dilution in test tubes, visual observation of growth of bacteria; assay type: cell-based; set-up: key to growth of bacteria, Dilution rate 0 / growth of bacteria, Dilution rate ×2 / growth of bacteria, Dilution rate ×4: visually observing a growth of bacteria, and the observation result is shown by marks of + and −; visually observing a growth of bacteria, and the observation result is shown by marks of + and −
# Protocol: Further, successive 2-fold dilutions […] media of ½ concentration; 5 ml of the applicable diluted solution at each fold was separately poured into dual test tubes, for preparation; while simultaneously preparing diluted solutions of ε-polylysine only in test tubes as a comparative test, in the same manner as the above; and one droplet of an inoculum of Pseudomonas was inoculated into each diluted solution, followed by shaking and culturing at 37° C. for 18 hours. Judgment of each activity was conducted by visually observing a growth of bacteria, and the observation result is shown by marks of + and −.
# bacteria and fungi = assay: growth of bacteria and fungi with diluted ε-polylysine by itself; assay type: cell-based; settings: ε-polylysine by itself diluted down to about 6.25 μg/ml
# [2] = test system: Pseudomonas aeruginosa, JCM 5961; assay: growth curve of Pseudomonas by optical density measuring method, liquid culture (½ TS medium); assay type: cell-based
# Protocol: 100 mg of a sucrose monolaurate (Ryoto Sugar Ester L1695 produced by Mitsubishi-Kagaku Foods Corporation) was dissolved in 1 liter of a sterilized deionized water, the resultant solution was heated to 50° C., 50 mg of monolaurin (Taiyo Kagaku Co., Ltd.) was added thereinto followed by stirring, the dissolution thereof was then confirmed, and the resultant solution was subsequently cooled down to a room temperature. Added into the solution was 50 mg of an ε-polylysine product (50% dextrin powder produced by Chisso Corporation; containing 50% of ε-polylysine bromate and 50% of dextrin), followed by dissolution thereof, to obtain an antimicrobial aqueous solution. This antimicrobial aqueous solution contained 25 μg/ml of the ε-polylysine, 50 μg/ml of the monolaurin, and 100 μg/ml of the sucrose monolaurate. Here, used as the monolaurin was that recrystallized by means of hexane, because a monolaurin of high purity was required. […]
# [3] = 37° C. for 18 hours, start: ε-polylysine only 50 μg/ml, or ε-polylysine 8 μg/ml (fix) + diglycerol monolaurate 50 μg/ml
substance,measurement,setting,value
ε-polylysine,LD50,[1],> 10000 mg/kg
same,"growth of bacteria, Dilution rate 0",Pseudomonas; [3],−
same,"growth of bacteria, Dilution rate ×2",Pseudomonas; [3],−
same,"growth of bacteria, Dilution rate ×4",Pseudomonas; [3],−
same,dilutions in which growth of bacteria was found,"Pseudomonas; ε-polylysine only, start 50 μg/ml, successive 2-fold dilution",≥ 8 fold
same,effect on growth of bacteria and fungi,bacteria and fungi,promote growth of bacteria and fungi
same,"growth of bacteria (growth curve, FIG. 2)","[2]; 10 μg/ml of each component named in the sample code, compared with control without additive",growth of bacteria to the similar level as a control
same,"lapse of time after which growth of bacteria set in (growth curve, FIG. 1)","[2]; sample codes give μg/ml (M monolaurin, PL ε-polylysine, S sucrose monolaurate)",12 h
